Measurements reported in patent US11292801B2, “Calpain modulators and therapeutic uses thereof” (Blade Therapeutics, Inc., priority 2016, dated 2022).

Experiments:
Human Calpain 2/NS1 = target: T1, Human Calpain 2/NS1 (Homo sapiens, UniProt P17655); assay: Biochemical inhibition of calpain 2, continuous fluorescence (FRET substrate) assay; details: mean, read-out: Human Calpain 2/NS1 IC50 (nM)_MEAN
T1 sequence (P17655 1-700): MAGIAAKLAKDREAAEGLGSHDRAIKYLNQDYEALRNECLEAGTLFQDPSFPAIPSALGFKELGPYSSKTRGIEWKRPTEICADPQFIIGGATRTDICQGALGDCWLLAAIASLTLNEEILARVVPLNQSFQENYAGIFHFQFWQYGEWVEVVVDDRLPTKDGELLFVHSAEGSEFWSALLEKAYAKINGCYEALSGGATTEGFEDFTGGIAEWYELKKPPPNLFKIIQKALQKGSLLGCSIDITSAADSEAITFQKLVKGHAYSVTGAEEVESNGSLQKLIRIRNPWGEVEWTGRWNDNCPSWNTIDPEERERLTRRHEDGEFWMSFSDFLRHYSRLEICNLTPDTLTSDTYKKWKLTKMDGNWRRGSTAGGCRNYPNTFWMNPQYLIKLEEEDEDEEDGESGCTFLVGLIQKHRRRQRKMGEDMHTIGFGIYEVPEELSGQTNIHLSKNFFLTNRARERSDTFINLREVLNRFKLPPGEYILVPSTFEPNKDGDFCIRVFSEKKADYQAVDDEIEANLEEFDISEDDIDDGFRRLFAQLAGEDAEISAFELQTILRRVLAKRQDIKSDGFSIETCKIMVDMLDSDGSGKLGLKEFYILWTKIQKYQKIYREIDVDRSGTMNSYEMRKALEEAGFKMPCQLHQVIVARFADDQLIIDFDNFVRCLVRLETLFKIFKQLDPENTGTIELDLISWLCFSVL
T1 sequence (P04632 1-268 partner): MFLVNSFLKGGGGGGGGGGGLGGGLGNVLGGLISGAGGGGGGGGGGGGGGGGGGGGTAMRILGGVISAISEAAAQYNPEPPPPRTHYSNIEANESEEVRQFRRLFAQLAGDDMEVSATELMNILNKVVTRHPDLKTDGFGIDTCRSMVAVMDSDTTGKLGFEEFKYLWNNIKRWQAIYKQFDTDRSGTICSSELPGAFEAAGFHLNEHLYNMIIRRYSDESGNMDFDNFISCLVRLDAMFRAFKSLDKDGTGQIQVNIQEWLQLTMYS
Method in brief: (§1)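 Continuous FRET assay with 5-FAM/QXL520 peptide substrate in 50 mM Tris pH ~7.5, 100 mM NaCl, 1 mM DTT. Enzyme preincubated with inhibitor at 25C; reaction started with substrate plus CaCl2, read at 490/520 nm for 10 min. Rates from slopes over 1-5 min, IC50 from 4-parameter logistic fit.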

Human Calpain 1/NS1 = target: T2, Human Calpain 1/NS1 (Homo sapiens, UniProt P07384); assay: Biochemical inhibition of calpain 1, continuous fluorescence (FRET substrate) assay; details: mean, read-out: Human Calpain 1/NS1 IC50 (nM)_MEAN
T2 sequence (P07384 1-714): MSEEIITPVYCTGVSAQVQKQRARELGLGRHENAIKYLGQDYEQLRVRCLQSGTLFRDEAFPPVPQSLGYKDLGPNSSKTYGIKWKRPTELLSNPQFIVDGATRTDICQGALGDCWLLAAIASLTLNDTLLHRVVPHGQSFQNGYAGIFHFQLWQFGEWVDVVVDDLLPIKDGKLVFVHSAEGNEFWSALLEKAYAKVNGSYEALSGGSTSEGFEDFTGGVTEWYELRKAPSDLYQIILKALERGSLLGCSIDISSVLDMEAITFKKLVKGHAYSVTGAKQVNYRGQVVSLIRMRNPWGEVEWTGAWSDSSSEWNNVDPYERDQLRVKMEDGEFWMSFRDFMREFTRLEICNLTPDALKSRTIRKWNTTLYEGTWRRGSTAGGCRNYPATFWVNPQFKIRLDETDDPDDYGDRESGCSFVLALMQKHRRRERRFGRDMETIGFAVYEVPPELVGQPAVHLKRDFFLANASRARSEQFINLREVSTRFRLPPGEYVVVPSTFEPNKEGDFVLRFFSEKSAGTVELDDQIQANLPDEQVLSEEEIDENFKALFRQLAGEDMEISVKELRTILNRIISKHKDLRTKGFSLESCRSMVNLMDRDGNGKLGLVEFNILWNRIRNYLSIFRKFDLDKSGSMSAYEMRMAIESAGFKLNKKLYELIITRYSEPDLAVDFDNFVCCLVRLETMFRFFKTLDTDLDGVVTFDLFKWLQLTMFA
T2 sequence (P04632 1-268 partner): T1 sequence (P04632 1-268 partner)
Method in brief: as §1

Human Calpain 9/NS1 = target: T3, Human Calpain 9/NS1 (Homo sapiens, UniProt O14815); assay: Biochemical inhibition of calpain 9, continuous fluorescence (FRET substrate) assay; details: mean, read-out: Human Calpain 9/NS1 IC50 (nM)_MEAN
T3 sequence (O14815 1-690): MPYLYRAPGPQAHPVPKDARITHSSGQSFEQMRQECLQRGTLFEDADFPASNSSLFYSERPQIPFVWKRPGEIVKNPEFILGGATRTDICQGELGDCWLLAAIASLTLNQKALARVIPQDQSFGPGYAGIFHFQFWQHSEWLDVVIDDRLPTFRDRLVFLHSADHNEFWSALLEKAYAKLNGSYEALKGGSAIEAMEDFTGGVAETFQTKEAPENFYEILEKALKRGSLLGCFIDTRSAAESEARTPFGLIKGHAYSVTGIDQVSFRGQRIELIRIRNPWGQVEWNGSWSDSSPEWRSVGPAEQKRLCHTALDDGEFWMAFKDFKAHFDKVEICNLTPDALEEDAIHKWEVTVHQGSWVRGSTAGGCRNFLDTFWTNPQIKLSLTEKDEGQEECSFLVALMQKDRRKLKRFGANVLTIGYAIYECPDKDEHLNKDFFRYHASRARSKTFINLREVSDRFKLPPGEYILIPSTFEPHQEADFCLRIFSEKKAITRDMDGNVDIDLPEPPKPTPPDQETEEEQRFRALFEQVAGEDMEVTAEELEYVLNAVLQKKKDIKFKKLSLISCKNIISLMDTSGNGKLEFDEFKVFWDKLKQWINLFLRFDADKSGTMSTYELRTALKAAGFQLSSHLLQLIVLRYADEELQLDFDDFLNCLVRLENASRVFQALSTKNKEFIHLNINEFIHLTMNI
T3 sequence (P04632 1-268 partner): T1 sequence (P04632 1-268 partner)
Method in brief: as §1

Row | Compound | IC50 (Human Calpain 2/NS1) | IC50 (Human Calpain 1/NS1) | IC50 (Human Calpain 9/NS1)
1 | O=C1NC(C(=O)C(=O)N2CCOCC2)CCCCOCCOCc2ccccc21 (stereo not drawn) [Compound 115, 1-Morpholino-2-(12-oxo-1,3,4,6,7,8,9,10,11,12-decahydrobenzo[f][1,4]dioxa[9]azacyclotetradecin-10-yl)ethane-1,2-dione] | > 10000 nM | > 10000 nM | > 10000 nM
2 | COc1cccc(CN(C)C(=O)C(=O)C2CCCCOCCOCc3ccccc3C(=O)N2)c1 (stereo not drawn) [Compound 116, N-(3-methoxybenzyl)-N-methyl-2-oxo-2-(12-oxo-1,3,4,6,7,8,9,10,11,12-decahydrobenzo[f][1,4]dioxa[9]azacyclotetradecin-10-yl)acetamide] | > 10000 nM | > 10000 nM | > 10000 nM
3 | O=C(NCc1ccncc1)C(=O)C1CCCCOCCOCc2ccccc2C(=O)N1 (stereo not drawn) [Compound 117, 2-Oxo-2-(12-oxo-1,3,4,6,7,8,9,10,11,12-decahydrobenzo[f][1,4]dioxa[9]aza-cyclotetradecin-10-yl)-N-(pyridin-4-ylmethyl)acetamide] | 3000 to 10000 nM | > 10000 nM | < 3000 nM
4 | CS(=O)(=O)c1cccc(CNC(=O)C(=O)C2CCCCOCCOCc3ccccc3C(=O)N2)c1 (stereo not drawn) [Compound 118, N-(3-(methylsulfonyl)benzyl)-2-oxo-2-(12-oxo-1,3,4,6,7,8,9,10,11,12-decahydrobenzo[f][1,4]dioxa[9]azacyclotetradecin-10-yl)acetamide] | > 10000 nM | > 10000 nM | < 3000 nM
5 | COc1cc(CNC(=O)C(=O)C2CCCCOCCOCc3ccccc3C(=O)N2)cc(OC)c1 (stereo not drawn) [Compound 119, N-(3,5-dimethoxybenzyl)-2-oxo-2-(12-oxo-1,3,4,6,7,8,9,10,11,12-decahydrobenzo[f][1,4]dioxa[9]azacyclotetradecin-10-yl)acetamide] | 3000 to 10000 nM | > 10000 nM | < 3000 nM
6 | O=C(NCc1cccc(OC(F)(F)F)c1)C(=O)C1CCCCOCCOCc2ccccc2C(=O)N1 (stereo not drawn) [Compound 120, 2-Oxo-2-(12-oxo-1,3,4,6,7,8,9,10,11,12-decahydrobenzo[f][1,4]dioxa[9]aza-cyclotetradecin-10-yl)-N-(3-(trifluoromethoxy)benzyl)acetamide] | > 10000 nM | > 10000 nM | < 3000 nM
7 | CS(=O)(=O)c1ccc(CNC(=O)C(=O)C2CCCCOCCOCc3ccccc3C(=O)N2)cc1 (stereo not drawn) [Compound 121, N-(4-(methylsulfonyl)benzyl)-2-oxo-2-(12-oxo-1,3,4,6,7,8,9,10,11,12-decahydrobenzo[f][1,4]dioxa[9]azacyclotetradecin-10-yl)acetamide] | 3000 to 10000 nM | > 10000 nM | < 3000 nM
8 | COCCOCCOCCNC(=O)C(=O)C1CCCCOCCOCc2ccccc2C(=O)N1 (stereo not drawn) [Compound 122, N-(2-(2-(2-methoxyethoxy)ethoxy)ethyl)-2-oxo-2-(12-oxo-1,3,4,6,7,8,9,10,11,12-decahydrobenzo[f][1,4]dioxa[9]azacyclotetradecin-10-yl)acetamide] | > 10000 nM | > 10000 nM | > 10000 nM
9 | COc1ccc(CCNC(=O)C(=O)C2CCCCOCCOCc3ccccc3C(=O)N2)cc1OC (stereo not drawn) [Compound 123, N-(3,4-dimethoxyphenethyl)-2-oxo-2-(12-oxo-1,3,4,6,7,8,9,10,11,12-decahydrobenzo[f][1,4]dioxa[9]azacyclotetradecin-10-yl)acetamide] | > 10000 nM | > 10000 nM | 3000 to 10000 nM
10 | CC(C)(NC(=O)C(=O)C1CCCCOCCOCc2ccccc2C(=O)N1)c1cccnc1 (stereo not drawn) [Compound 124, 2-Oxo-2-(12-oxo-1,3,4,6,7,8,9,10,11,12-decahydrobenzo[f][1,4]dioxa[9]azacyclotetradecin-10-yl)-N-(2-(pyridin-3-yl)propan-2-yl)acetamide] | > 10000 nM | > 10000 nM | > 10000 nM
11 | O=C(NC1(c2cccnc2)CC1)C(=O)C1CCCCOCCOCc2ccccc2C(=O)N1 (stereo not drawn) [Compound 125, 2-Oxo-2-(12-oxo-1,3,4,6,7,8,9,10,11,12-decahydrobenzo[f][1,4]dioxa[9]aza-cyclotetradecin-10-yl)-N-(1-(pyridin-3-yl)cyclopropyl)acetamide] | > 10000 nM | > 10000 nM | > 10000 nM
12 | C[C@H](NC(=O)C(=O)C1CCCCOCCOCc2ccccc2C(=O)N1)c1cccnc1 (stereo partly drawn) [Compound 126, 2-Oxo-2-(12-oxo-1,3,4,6,7,8,9,10,11,12-decahydrobenzo[f][1,4]dioxa[9]aza-cyclotetradecin-10-yl)-N—((S)-1-(pyridin-3-yl)ethyl)acetamide] | > 10000 nM | > 10000 nM | > 10000 nM
13 | C[C@@H](NC(=O)C(=O)C1CCCCOCCOCc2ccccc2C(=O)N1)c1cccnc1 (stereo partly drawn) [Compound 127, 2-Oxo-2-(12-oxo-1,3,4,6,7,8,9,10,11,12-decahydrobenzo[f][1,4]dioxa[9]aza-cyclotetradecin-10-yl)-N—((R)-1-(pyridin-3-yl)ethyl)acetamide] | > 10000 nM | > 10000 nM | > 10000 nM
14 | O=C(NCCc1ccc(Cl)cc1)C(=O)[C@@H]1CCCCOCCOCc2ccccc2C(=O)N1 [Compound 128, (S)—N-(4-chlorophenethyl)-2-oxo-2-(12-oxo-1,3,4,6,7,8,9,10,11,12-decahydrobenzo[f][1,4]dioxa[9]azacyclotetradecin-10-yl)acetamide] | < 3000 nM | 3000 to 10000 nM | < 3000 nM
15 | NC(=O)C(=O)[C@@H]1CCCCCOc2ccnc(n2)-c2ccccc2C(=O)N1 [Compound 129, (S)-2-oxo-2-(3-oxo-11-oxa-4-aza-1(2,4)-pyrimidina-2(1,2)-benzena-cycloundecaphane-5-yl)acetamide] | < 3000 nM | < 3000 nM | < 3000 nM
16 | NC(=O)C(=O)[C@@H]1CCCCCOc2cccc(c2)-c2ncccc2C(=O)N1 [Compound 130, (S)-2-oxo-2-(11-oxo-3-oxa-10-aza-1(2,3)-pyridina-2(1,3)-benzena-cycloundecaphane-9-yl)acetamide] | < 3000 nM | < 3000 nM | < 3000 nM
